Results from US20210290839A1, “SYSTEMS AND METHODS FOR DETECTING AND TREATING BACTERIAL BIOFILMS” (UNIVERSITY OF MARYLAND, COLLEGE PARK, priority 2017, published 2021).
Entries after “also recorded” stand apart in the source; their conditions may differ.

How the values were obtained:
Format in all cases: cell-based
[1] = system: bacterial biofilm; assay: End-point confocal microscopy quantification of bacterial biofilm thickness (FIG. 8); conditions: Combination: 100 μM autoinducer-2 analog isobutyl DPD plus 0.125V AC at 10 MHz offset by 0.125V DC, compared with either alone
Source text: FIG. 8 is a bar graph showing the results of end-point confocal microscopy quantification of bacterial biofilm thickness for different treatment conditions, including combined electrical measuring and quorum sensing inhibitors (e.g., autoinducer-2 analog).
Although the preceding paragraphs address the bioelectric effect based on antibiotics, similar results can be obtained with other antimicrobial agents, such as quorum sensing inhibitors. In particular, FIG. 8 illustrates the results of experiments for different treatment conditions using autoinducer-2 analog. “LB control” represents an experiment where no electric field or autoinducer-2 analog was present. “E-field only” represents an experiment where an electrical signal of 0.125V AC at 10 MHz offset by 0.125V DC was applied to electrodes, without any autoinducer-2 analog present. “AI-2 analog” represents an experiment where autoinducer-2 analog is introduced (e.g., 100 μM autoinducer-2 analog isobutyl DPD) without any electrical signal applied to the electrodes. “Combination” represents an experiment where the electrical signal is applied to the electrodes and autoinducer-2 analog is introduced.

[2] = system: Escherichia coli (K12 W3110) biofilm; assay: Crystal violet absorbance assay biomass quantification (FIG. 6B); conditions: 24-hour treatment
Method: (§1) In particular, each experiment employed a flow system including a growth media reservoir, waste reservoir, and the detecting device connected using polymer tubing and luer connectors in between the reservoirs. Fluid was pumped through the flow system by a peristaltic pump. The detecting device and tubing were placed in an incubator maintained at 37° C., to mimic the temperature found in an inserted catheter. Escherichia coli (K12 W3110) were cultured in incubator at 37° C. and then diluted to an OD600 of 0.25. 1 ml of the diluted E. coli solution was then introduced into the catheter tube directly via syringe. […] Throughout the Growth phase, the system impedance (Z) is measured by the detecting device every 2 minutes, with the relative change being used to monitor biofilm formation. […]
CV absorbance staining was used to quantify the end-point biomass and to validate the impedance measurements of FIG. 6A. […] Optical absorbance at a wavelength (λ) of 590 nm was then measured, with increases corresponding to increased biomass. One-way analysis of variance (ANOVA) was used to determine statistical significance of the biomass quantification results.
FIG. 6B illustrates the results of the CV absorbance assay for various treatment conditions in experiments employing a detecting device fabricated according to the structure of FIGS. 3A-3B and employing a benchtop potentiostat as the voltage source.

[3] = system: bacterial biofilm; assay: Real-time fractional relative change of impedance during treatment with threshold-triggered 100 mV signal (FIG. 7); conditions: 24 hour treatment
Method: FIG. 7 illustrates the fractional relative change of impedance measurements in experiments similar to that of FIG. 6B. In particular, treatment is performed by applying a 100 mV signal across the same electrodes used for impedance detection, in combination with near MIC levels of antibiotic, thereby generating a second bioelectric effect. This bioelectric effect was applied at regular intervals for only ˜1/7 of the total 24 hour treatment period.
The “E-field” curve represents an experiment where an intervallic 100 mV AC electrical signal (e.g., at 1 MHz) in addition to the periodic 5 mV AC detection voltage was applied to the electrodes, but without any antibiotic present. The “BE” curve represents an experiment where an intervallic 100 mV AC electrical signal (e.g., at 1 MHz) in addition to the periodic 5 mV AC detection voltage was applied to the electrodes, and with 10 μg/mL of gentamicin present. The decision to apply the 100 mV AC signal in both experiments was made by logic using the impedance data gathered in the sensing mode (i.e., using the 5 mV AC detection voltage). If the average sensing mode data point was less than a predefined threshold, then the larger 100 mV electric field treatment was applied; otherwise, the system continued in sensing mode with the periodic application of the 5 mV AC detection voltage. […]

[4] = system: Escherichia coli (K12 W3110) biofilm; assay: Real-time impedance sensing of biofilm during 24-hour treatment period (FIG. 6A); conditions: BE: gentamicin 10 μg/ml plus sensing, AC 50 mV at 100 Hz, 30 s of every 150 s; 24-hour treatment of 24-hour biofilm; increase corresponds to removal of biofilm
Method: as §1, with “syringe. The bacteria were allowed to attach to the interior surface under static (no flow) conditions for 2 hours (referred to as the Seeding phase).” for “syringe.”
As noted above, the sensing voltage applied to the electrodes of the detecting device 300 can also synergistically enhances any antimicrobial agent present to deliver a bioelectric effect. FIG. 6A illustrates the measured impedance characteristics in experiments employing a detecting device fabricated according to the structure of FIGS. 3A-3B and employing a benchtop potentiostat as the voltage source. […]

| Compound | reduction of biofilm thickness [1] | end-point biofilm biomass (CV absorbance at 590 nm) ([2]; Anti-only: antibiotic without impedance sensing) | end-point biofilm biomass (CV absorbance at 590 nm) ([2]; BE: sensing + antibiotic (gentamicin 10 μg/ml)) | change in 100 Hz impedance at the end of treatment phase ([3]; "Antibiotic": 10 μg/mL gentamicin with periodic 5 mV AC detection voltage) | change in 100 Hz impedance at the end of treatment phase ([3]; "BE": 10 μg/mL gentamicin with intervallic 100 mV AC (1 MHz) plus periodic 5 mV AC detection voltage) | impedance change during the treatment period [4] |
| --- | --- | --- | --- | --- | --- | --- |
| CC(C)CC(=O)C(=O)C(O)CO (stereo not drawn) [autoinducer-2 analog, isobutyl DPD] | substantially improved efficacy in reducing biofilm thickness over either alone | – | – | – | – | – |
| gentamicin | – | significantly higher biomass of biofilm | biomass similar to a bacteria-free control | increase in 100 Hz impedance; also recorded: as effective in treating the biofilm | increase in 100 Hz impedance | ~20% |
